The values that follow come from patent US12661308B2, “Antimicrobial AZO compounds and uses thereof” (The Regents Of The University Of Colorado, A Body Corporate, priority 2019, dated 2026).

Experiment [1] deals with S. mutans (ATCC 25175) biofilm. Briefly: Detachment study of S. mutans biofilm on monomer-coated polymeric substrates (Example 1). Type of experiment: cell-based, Streptococcus mutans. Particulars: for detachment of S. mutans biofilm (CFU removed): 50 mg/mL coating solution, light/wash treatment. As for the experimental part:
The polymeric substrates were prepared by mixing 54 wt % methyl methacrylate (MMA), 30 wt % polymethylmethacrylate (PMMA, MW ˜35 k), and 16 wt % tetraethylene glycol dimethacrylate (TEGDMA) at 70° C. for 2 hr. After mixing, 1 wt. % azobisisobutyronitrile (AIBN) was added to the formulation as an initiator and mixed.
The mixed formulation was added to circular molds (diameter=6.5 mm) cut from a strip of rubber (thickness=0.9 mm) and pressed between two glass microscope slides. The mold was clamped together and thermally cured at 80° C. for 1.5 hr.
The polymeric substrates were coated as follows. Coating solutions were prepared having the following monomer concentrations (see FIG. 3 for structures of the monomers): 0.5 mg/mL and 50 mg/mL solutions of a phenolic acrylated azobenzene monomer (OH-AAZO), 50 mg/mL acrylated azobenzene monomer (AAZO), 50 mg/mL 4-hydroxyl benzylacrylate (HBA), 50 mg/mL 2-hydroxylethyl methacrylate (HEMA).
The coating solutions included the monomer in N,N′-dimethylformamide (DMF) along with 0.5 mg/mL of AIBN and 0.1 mg/mL of Rhodamine B as an indicator dye. Once mixed, 3 μL of each coating solution was pipetted onto one side of the polymeric substrate and spun at 1000 RPM for 1 min followed by spinning at 6000 RPM for 3 s. The coating was cured under a nail lamp (Melody Susie UV Gel Nail Polish Dryer, Model DR-301C) for at least 15 min before repeating the coating procedure on the other side.
The controlled growth of biofilms varied depending on the bacteria strain. In the case of S. mutans, a BHI agar plate was streaked with S. mutans (ATCC 25175) and allowed to incubate at 37° C. in 5% CO2 for 60 hr to isolate a single bacterial colony. The colony was inoculated in 5 mL of BHI and allowed to incubate statically in the 5% CO2 incubator for 24 hr. The stock solution was diluted 1:50 in a 96-well plate containing the substrates of interest and allowed to incubate in the 5% CO2 incubator for an additional 24 hr.
The detachment study quantified the biofilm grown on each substrate via a series of washes in 1×PBS. The substrate was irradiated using a dental lamp (FlashMax P3 Ortho™, 1900 mW/cm2, wavelength=450-470 nm) on the underside of the vial for a total of ten 3 s irradiations per side. Following the series of washes, the substrate was sonicated for 10 min to remove the residual biofilm on the substrate. The wash solutions were serial diluted, plated, and grown at 37° C. and 5% CO2 to obtain the CFU count.
Images collected from a digital microscope (Zeiss Axioplan II microscope, 630×, step size 0.1 μm) after the substrate and bacteria were treated with BACLIGHT Live/Dead stain are included in FIG. 4.

The subject of experiment [2] is S. mutans biofilm. Briefly: S. mutans biofilm growth on coated pit and fissure dental sealants. In kind it is cell-based, Streptococcus mutans. Particulars: coating on pit and fissure sealants. The text has this:
In some implementations, the azobenzene polymers can be used as an antimicrobial coating on pit and fissure dental sealants. […] Azobenzene coatings can be incorporated into pit and fissure sealants as an anti-bacterial coating to prevent tooth decay.

`C=CC(=O)OCc1ccc(O)cc1` [HBA, 4-hydroxybenzyl acrylate]: the “detachment of S. mutans biofilm (CFU removed)” value in experiment [1] was “minimal detachment”. Still for that read-out and setting: the same measure for `C=C(C)C(=O)OCCO` [HEMA, 2-hydroxylethyl methacrylate]: “minimal detachment”. Consider Acrylated azobenzene [AAZO], for which, in experiment [1], the “detachment of S. mutans biofilm (CFU removed)” value is “minimal detachment”. Moreover, the “S. mutans biofilm on substrate, Live/Dead stain microscopy” value in experiment [1] (after wash/light treatment) is recorded as “still contained a robust S. mutans biofilm”. For the same compound, the “S. mutans biofilm growth” value in experiment [2] is “significantly reduced”.
